# Square brackets hold non-standard residues; d marks the D form. Ends that are not written are not given here.
# What was measured:
# [1] = intracerebral (icv) administration; cited from earlier work
# [2] = intravenous administration; more potent than morphine; cited from earlier work
# CF-1 mice = assay: phenylbenzoquinone induced writhing test (modified Siegmund procedure); format: in vivo
# Description: Biol. Med. 95 729-731 (1957), in which groups of ten CF-1 mice were administered, subcutaneously, known dosages of N(Me)Tyr--D--Asn--Gly--N(Me)Phe--D--Asn--NH2, as a compound representative of the group of compounds of this invention. Five minutes later, each animal received, i.p., 0.25 ml. of a 0.02 percent phenylbenzoquinone solution. The animals were observed over a ten minute period following the phenylbenzoquinone injection for the presence of writhing. […] The dose-response analysis was then performed according to Litchfiled et al., J. Pharmacol. exp. Therap. 96 99--113(1949). The ED50 for the test compound was 1.0 mg/kg (0.62-1.6) at 30 minutes by subcutaneous administration.
compound,measurement,setting,value
"II: pentapeptide Tyr--Gly--Gly--Phe--X where X=Met, isolated by Hughes et al. (YGGFM; printed: Tyr--Gly--Gly--Phe--Met)",analgesic activity after icv administration,[1],analgesic activity only after intracerebral (icv) administration
Tyr--D--Ala--Gly--Phe--Met--NH2 [III],analgesic activity after icv administration,[1],potent and prolonged analgesia
Y[dM]GFP-NH2 [IV],potency relative to morphine,[2],5.5 times
CC(=O)O.CN[C@@H](Cc1ccc(O)cc1)C(=O)N[C@H](CC(N)=O)C(=O)NCC(=O)N(C)[C@@H](Cc1ccccc1)C(=O)N[C@H](CC(N)=O)C(N)=O [N-Methyl-L-tyrosyl-D-asparaginyl-glycyl-N-methyl-L-phenylalanyl-D-asparaginyl amide acetate],animals in which analgesia was observed,"CF-1 mice; dose of 10 mg/kg, same procedure, for a period of forty five minutes",100%
same,"ED50 (analgesia, absence of writhing)","CF-1 mice; subcutaneous administration, at 30 minutes, limits (0.62-1.6), groups of ten CF-1 mice",1.0 mg/kg
